Reference: US6699459B2, “Methods of treating lung inflammation” (The Board of Regents of the University of Texas System, priority 2001, dated 2004)

Experiments:
RANTES [1] = experiment: RSV-induced RANTES secretion in A549 cells (ELISA); type: cell-based, human; conditions: for RSV-induced RANTES production: A549 cells, 24 hours, ELISA; for RSV-induced RANTES secretion: concentration not given, data not shown
Experimental: (§1) Cell culture and infection of epithelial cells with RSV. A549, human alveolar type II-like epithelial cells (ATCC, Manassas, Va.), were maintained in F12K medium containing 10% (v/v) fetal bovine serum (FBS), 10 mM glutamine, 100 IU/ml penicillin and 100 μg/ml streptomycin. Small alveolar epithelial cells (SAE) were obtained from Clonetics (San Diego, Calif.) and grown according to the company instructions. Cell monolayers were infected with RSV at multiplicity of infection (MOI) of 1 (unless otherwise stated), as described (17). An equivalent amount of a 20% sucrose solution was added to uninfected A549 cells, as a control. For the antioxidant experiments, cells were pretreated with the antioxidants for one hour and then infected in the presence of the antioxidants. Since BHA was diluted in ethanol, equal amounts of ethanol were added to untreated cells, as a control. Total number of cells, cell viability and viral replication, following antioxidant treatment, were measured by trypan blue exclusion and by plaque assay, respectively. RANTES ELISA. Immunoreactive RANTES was quantitated by a double antibody ELISA kit (DuoSet, R&D Systems, Minneapolis, Minn.) following the manufacturer's protocol.

STAT = experiment: RSV-induced STAT activation in alveolar epithelial cells; type: cell-based
RANTES [2] = experiment: RSV-induced RANTES secretion in SAE cells (ELISA); type: cell-based, human; conditions: 20 mM, 24 hours, ELISA
Experimental: as §1

NOS-2 = conditions: retinal epithelial cells, LPS/Interferon-γ; Faure et al. (40); cited from earlier work

C[S+](C)[O-] [DMSO, dimethylsulphoxide]
RSV-induced RANTES production (RANTES [1]; 2% (v/v)): significantly block

c1ccc2c(c1)[I+]c1ccccc1-2 [DPI]
STAT activation following RSV infection (STAT): greatly reduces (or abolishes)

COC(=O)[C@@H](N)CCCNC(=N)N[N+](=O)[O-] [L-NAME]
RSV-induced RANTES secretion (RANTES [1]): no changes

CNC(=N)NCCC[C@H](N)C(=O)O [L-NMMA]
RSV-induced RANTES secretion (RANTES [1]): no changes

CC(=O)N[C@@H](CS)C(=O)O [NAC, N-acetyl cystein, reference compound]
RSV-induced RANTES production (RANTES [1]; 20 mM): significantly block
RSV-induced RANTES production (RANTES [2]): significantly reduced

S=C(S)N1CCCC1 [PDTC]
NOS-2 induction (NOS-2): able to inhibit

CN(C)C(=S)N(C)C [TMTU, tetramethyl thiourea, reference compound]
RSV-induced RANTES production (RANTES [1]; 20 mM): significantly block
RSV-induced RANTES production (RANTES [2]): significantly reduced
